In patent US6864253B2, “Benzo[4,5]thieno[2,3-c]pyridine and Benzo[4,5]furo[2,3-c]pyridine Derivatives Useful as Inhibitors of Phosphodiesterase” (Orth-McNeil Pharmaceutical, Inc., priority 2000, dated 2005):

biological target: PDEV (Oryctolagus cuniculus, UniProt G1SX67); assay: Cyclic nucleotide phosphodiesterase (PDE) assay, inhibition of PDEV isolated from rabbit tissue; type: biochemical; details: 10 μM test compound; rabbit PDEV
Procedure: Briefly, rabbit or human tissues were homogenized in an ice-cold buffer solution containing 20 mM HEPES (pH 7.2), 0.25M sucrose, 1 mM EDTA, and 1 mM phenylmethylsulphonyl fluoride (PMSF). The homogenates were centrifuged at 100,000 g for 60 minutes at 4° C. The supernatant was filtered through […] filter and loaded on a Pharmacia Mono Q anion exchange column (1 ml bed volume) that was equilibrated with 20 mM HEPES, 1 mM EDTA and 0.5 mM PMSF. […] The fractions comprising various PDE activities were pooled separately and used in later studies.
The assays were adapted to a 96-well format. The enzyme was assayed in 5 mM MgCl2, 15 mM Tris HCl (pH 7.4), 0.5 mg/ml bovine serum albumin, 1 μM cGMP or cAMP, 0.1 μCi [^3H]-cGMP or [^3H]-cAMP, and 2-10 μl of column elution. The total volume of the assay was 100 μl. The reaction mixture was incubated at 30° C. for 30 minutes. The reaction was stopped by boiling for 1 minute and then cooled down on ice. The resulting [^3H] 5′-mononucleotides were further converted to uncharged [^3H]-nucleosides by adding 25 μl 1 mg/ml snake venom (Ophiophagus hannah) and incubating at 30° C. for 10 minute. The reaction was stopped by the addition of 1 ml Bio-Rad AG1-X2 resin slurry (1:3). All the charged nucleotides were bound by the resin and only the uncharged [^3H]-nucleosides remained in the supernatant after centrifuging. An aliquot of 200 μl was taken and counted by liquid scintillation. PDE activity was expressed as pmol cyclic nucleotide hydrolyzed/min/ml of enzyme preparation.
Inhibitor studies were carried out in assay buffer with a final concentration of 10% DMSO.

| SMILES | % Inh @ 10 μM (rabbit) [%] | % INH @ 10 μM (rabbit) [%] |
| --- | --- | --- |
| O=C(c1ccc(-c2cccc([N+](=O)[O-])c2)o1)N1CCc2c([nH]c3ccccc23)C1c1ccncc1 (stereo not drawn) [Cmpd 86] | 69 |  |
| CC(C)(C)c1cc(C(=O)N2CCc3c([nH]c4ccccc34)C2c2ccc(Cl)c(Cl)c2)n(Cc2ccccc2)n1 (stereo not drawn) [Cmpd 133] | 1 |  |
| COC(=O)C1Cc2c([nH]c3ccccc23)C(c2ccc3c(c2)OCO3)N1C(=O)c1ccc(-c2cccc([N+](=O)[O-])c2)o1 (stereo not drawn) [Cmpd 73] | 20 |  |
| c1ccc2sc(N3CCc4c([nH]c5ccccc45)C3c3ccc4c(c3)OCO4)nc2c1 (stereo not drawn) [Cmpd 3] | 84 |  |
| COC(=O)Cn1c2c(c3ccccc31)CCN(C(=O)c1ccc(-c3cccc([N+](=O)[O-])c3)o1)C2c1ccc2c(c1)OCO2 (stereo not drawn) [Cmpd 24] | 40 |  |
| O=C(c1ccc(-c2cccc(C(F)(F)F)c2)o1)N1CCc2c([nH]c3ccccc23)C1c1ccccc1 (stereo not drawn) [Cmpd 88] | 49 |  |
| CN(C)CCn1c2c(c3ccccc31)CCN(C(=O)c1ccc(-c3ccc(Cl)cc3[N+](=O)[O-])o1)C2c1ccc2c(c1)OCO2 (stereo not drawn) [Cmpd 40] | 78 |  |
| N#Cc1ccc(C2c3[nH]c4ccccc4c3CCN2C(=O)c2ccc(-c3cccc(C(F)(F)F)c3)o2)cc1 (stereo not drawn) [Cmpd 81] | 18 |  |
| O=C(c1ccc(-c2cccc(C(F)(F)F)c2)o1)N1CCc2c([nH]c3ccccc23)C1c1ccc2c(c1)OC(F)(F)O2 (stereo not drawn) [Cmpd 22] | 16 |  |
| Cc1ccc(C2c3[nH]c4ccccc4c3CCN2C(=O)c2c(-c3ccccc3)noc2C)cc1C (racemic) [Cmpd 111] | 35 |  |
| O=C(O)C1Cc2c([nH]c3ccccc23)C(c2ccc3c(c2)OCO3)N1C(=O)c1ccc(-c2cccc(C(F)(F)F)c2)o1 (stereo not drawn) [Cmpd 70] | 46 |  |
| O=C(c1cc2ccccc2o1)N1CCc2c([nH]c3ccccc23)C1c1ccc2c(c1)OCO2 (stereo not drawn) [Cmpd 16] | 88 |  |
| O=C(c1ccc(-c2cccc(C(F)(F)F)c2)o1)N1CCc2c(n(Cc3ccccn3)c3ccccc23)C1c1ccc2c(c1)OCO2 (stereo not drawn) [Cmpd 26] | 88 |  |
| CN(C)CCn1c2c(c3ccccc31)CCN(C(=O)c1ccc(-c3cccc([N+](=O)[O-])c3)o1)C2c1ccc2c(c1)OCO2 (stereo not drawn) [Cmpd 38] | 91 |  |
| CN(C)CCCn1c2c(c3ccccc31)CCN(C(=O)c1ccc(-c3cccc(C(F)(F)F)c3)o1)C2c1ccc2c(c1)OCO2 (stereo not drawn) [Cmpd 44] | 65 |  |
| COC(=O)CCn1c2c(c3ccccc31)CCN(C(=O)c1ccc(-c3cccc(C(F)(F)F)c3)o1)C2c1ccc2c(c1)OCO2 (stereo not drawn) [Cmpd 23] | 30 |  |
| Cc1onc(-c2ccccc2)c1C(=O)N1CCc2c([nH]c3ccccc23)C1c1ccc(Cl)c(Cl)c1 (racemic) [Cmpd 109] | 31 |  |
| CN(C)CCn1c2c(c3ccccc31)CCN(C(=O)c1ccc(C(C)(C)C)o1)C2c1ccc2c(c1)OCO2 (stereo not drawn) [Cmpd 36] | 97 |  |
| FC(F)(F)c1ccc(Cl)c(-c2ccc(CN3CCc4c([nH]c5ccccc45)C3c3ccc4c(c3)OCO4)o2)c1 (stereo not drawn) [Cmpd 11] | 53 |  |
| CN(C)CCNC(=O)C1Cc2c([nH]c3ccccc23)C(c2ccc3c(c2)OCO3)N1C(=O)c1ccc(-c2cccc(C(F)(F)F)c2)o1 (stereo not drawn) [Cmpd 69] | 21 |  |
| c1ccc2oc(N3CCc4c(n(-c5nc6ccccc6o5)c5ccccc45)C3c3ccc4c(c3)OCO4)nc2c1 (stereo not drawn) [Cmpd 150] |  | 4 |
| Cc1ccc(-c2ccc(C(=O)N3CCc4c(n(CCN(C)C)c5ccccc45)C3c3ccc4c(c3)OCO4)o2)c([N+](=O)[O-])c1 (stereo not drawn) [Cmpd 42] | 89 |  |
| Cc1ccc(C2c3[nH]c4ccccc4c3CCN2C(=O)c2cnn(-c3ccccc3)c2C(F)(F)F)cc1C (racemic) [Cmpd 119] | 28 |  |
| O=C(c1ccc(-c2cccc(C(F)(F)F)c2)o1)N1CCc2c([nH]c3ccccc23)C1c1cccnc1 (stereo not drawn) [Cmpd 78] | 35 |  |
| O=C(c1cnn(-c2ccccc2)c1C(F)(F)F)N1CCc2c([nH]c3ccccc23)C1c1ccc2c(c1)OCO2 (stereo not drawn) [Cmpd 123] | 56 |  |
| CN(C)CCn1c2c(c3ccccc31)CCN(C(=O)c1ccc(-c3cc(C(F)(F)F)ccc3Cl)o1)C2c1ccc2c(c1)OCO2 (stereo not drawn) [Cmpd 43] | 22 |  |
| O=C(c1ccc(-c2cccc(C(F)(F)F)c2)o1)N1CCc2c([nH]c3ccccc23)C1c1ccncc1 (stereo not drawn) [Cmpd 87] | 34 |  |

| SMILES | % Inh @ 10 μM (rabbit) [%] | % INH @ 10 μM (rabbit) [%] |
| --- | --- | --- |
| CN(C)CCn1c2c(c3ccccc31)CCN(C(=O)c1cc3cc([N+](=O)[O-])ccc3o1)C2c1ccc2c(c1)OCO2 (stereo not drawn) [Cmpd 13] | 94 |  |
| c1ccc2c3c([nH]c2c1)C(c1ccc2c(c1)CCO2)N(c1ncc(-c2ccc(OCCN4CCOCC4)cc2)cn1)CC3 (stereo not drawn) [Cmpd 180] |  | 40 |
| COc1ccc(-c2cnc(N3CCc4c([nH]c5ccccc45)C3c3ccc4c(c3)OCO4)nc2)cc1 (stereo not drawn) [Cmpd 9] | 80 |  |
| Cc1onc(-c2ccccc2)c1C(=O)N1CCc2c([nH]c3ccccc23)C1c1ccc([N+](=O)[O-])cc1 (racemic) [Cmpd 118] | 28 |  |
| CC(C)(C)c1cc(C(=O)N2CCc3c([nH]c4ccccc34)C2c2ccc([N+](=O)[O-])cc2)n(Cc2ccccc2)n1 (stereo not drawn) [Cmpd 142] | −5 |  |
| c1ccc2c3c([nH]c2c1)C(c1ccc2c(c1)CCO2)N(c1ncc(-c2ccc(OCCN4CCCC4)cc2)cn1)CC3 (stereo not drawn) [Cmpd 178] |  | 37 |
| O=S(=O)(c1ccccc1)c1ccc(S(=O)(=O)N2CCc3c([nH]c4ccccc34)C2c2ccc3c(c2)OCO3)s1 (stereo not drawn) [Cmpd 145] | 43 |  |
| FC(F)(F)c1cccc(-c2ccc(CN3CCc4c([nH]c5ccccc45)C3c3ccc4c(c3)OCO4)o2)c1 (stereo not drawn) [Cmpd 12] | 76 |  |
| CN(C)CCOC(=O)C1Cc2c([nH]c3ccccc23)C(c2ccc3c(c2)OCO3)N1C(=O)c1ccc(-c2cccc([N+](=O)[O-])c2)o1 (stereo not drawn) [Cmpd 68] | 35 |  |
| O=C(c1ccc(-c2ccc(NCCCCO)cc2)o1)N1CCc2c([nH]c3ccccc23)C1c1ccc2c(c1)OCO2 (stereo not drawn) [Cmpd 60] | 89 |  |
| CN(C)c1ccc(C2c3[nH]c4ccccc4c3CCN2C(=O)c2ccc(-c3cccc(C(F)(F)F)c3)o2)cc1 (stereo not drawn) [Cmpd 82] | 13 |  |
| O=C(c1ccc(Cl)nc1)N1CCc2c([nH]c3ccccc23)C1c1ccc2c(c1)OCO2 (racemic) [Cmpd 108] | 48 |  |
| O=C(c1ccc(-c2cccc([N+](=O)[O-])c2)o1)N1CCc2c(sc3ccccc23)C1c1ccc2c(c1)OCO2 (stereo not drawn) [Cmpd 76] | 27 |  |
| Cc1onc(-c2ccccc2)c1C(=O)N1CCc2c([nH]c3ccccc23)C1c1ccc(C#N)cc1 (racemic) [Cmpd 115] | 30 |  |
| Cc1ccc(C2c3[nH]c4ccccc4c3CCN2C(=O)c2cc(C(C)(C)C)nn2Cc2ccccc2)cc1C (stereo not drawn) [Cmpd 135] | 8 |  |
| O=C(c1ccc(C(F)(F)F)o1)N1CCc2c([nH]c3ccccc23)C1c1ccc2c(c1)OCO2 (stereo not drawn) [Cmpd 62] | 86 |  |
| O=C(c1cnn(-c2ccc(Cl)cc2)c1C(F)(F)F)N1CCc2c([nH]c3ccccc23)C1c1ccc2c(c1)OCO2 (stereo not drawn) [Cmpd 124] | 53 |  |
| O=C(c1ccc(-c2cccc([N+](=O)[O-])c2)o1)N1CCc2c([nH]c3ccccc23)C1c1ccc2c(c1)OCO2 (stereo not drawn) [Cmpd 54] | 81 |  |
| O=C(O)CCn1c2c(c3ccccc31)CCN(C(=O)c1ccc(-c3cccc(C(F)(F)F)c3)o1)C2c1ccc2c(c1)OCO2 (stereo not drawn) [Cmpd 29] | 79 |  |
| O=C(c1ccc(-c2ccc(Cl)cc2)s1)N1CCc2c([nH]c3ccccc23)C1c1ccc2c(c1)OCO2 (stereo not drawn) [Cmpd 91] | 82 |  |
| O=C(c1ccc(-c2ccc([N+](=O)[O-])cc2)o1)N1CCc2c([nH]c3ccccc23)C1c1ccc2c(c1)OCO2 (stereo not drawn) [Cmpd 50] | 76 |  |
| O=C(c1ccc(-c2cccc(C(F)(F)F)c2)o1)N1CCc2c(n(CCCCCl)c3ccccc23)C1c1ccc2c(c1)OCO2 (stereo not drawn) [Cmpd 27] | 56 |  |
| O=C(c1cnn(-c2ccc([N+](=O)[O-])cc2)c1C(F)(F)F)N1CCc2c([nH]c3ccccc23)C1c1ccc2c(c1)OCO2 (stereo not drawn) [Cmpd 125] | 54 |  |
| COC(=O)c1ccc(C2c3[nH]c4ccccc4c3CCN2C(=O)c2cc(C(C)(C)C)nn2Cc2ccccc2)cc1 (stereo not drawn) [Cmpd 140] | 8 |  |
| O=C(c1cc(-c2ccc(Cl)cc2)oc1C(F)(F)F)N1CCc2c([nH]c3ccccc23)C1c1ccc2c(c1)OCO2 (racemic) [Cmpd 105] | 40 |  |
| O=C(c1cc2ccccc2s1)N1CCc2c([nH]c3ccccc23)C1c1ccc2c(c1)OCO2 (stereo not drawn) [Cmpd 18] | 87 |  |

same assay, conditions: 10 μM test compound; rabbit PDEV; read-out: % INH @ 10 μM (rabbit)

| SMILES | inhibition at 10 µM [%] |
| --- | --- |
| CN(C)CCn1c2c(c3ccccc31)CCN(C(=O)c1ccc(-c3ccccc3)o1)C2c1ccc2c(c1)OCO2 (stereo not drawn) [Cmpd 152] | 80 |
| c1ccc2oc(N3CCc4c([nH]c5ccccc45)C3c3ccc4c(c3)OCO4)nc2c1 (stereo not drawn) [Cmpd 151] | 95 |
| O=C(c1ccc(-c2ccccc2)o1)N1CCc2c([nH]c3ccccc23)C1c1ccc2c(c1)OCO2 (stereo not drawn) [Cmpd 149] | 80 |
| c1ccc(-c2cnc(N3CCc4c([nH]c5ccccc45)C3c3ccc4c(c3)OCO4)nc2)nc1 (stereo not drawn) [Cmpd 153] | 95 |
